From US20210198277A1, “AMINE-SUBSTITUTED ARYL OR HETEROARYL COMPOUNDS” (Epizyme, Inc., priority 2016, published 2021)

How the values were obtained:
human EHMT2 913-1193 = target: T1, human EHMT2 913-1193 (Homo sapiens, UniProt Q96KQ7); experiment: EHMT2 enzyme assay on histone peptide substrate (EHMT2 PEP); assay type: biochemical; conditions: Table II; read-out: EHMT2 PEP (IC50 μM)
T1 construct: recombinant purified human EHMT2 913-1193, Viva; purchased Viva
T1 sequence (Q96KQ7 913-1193): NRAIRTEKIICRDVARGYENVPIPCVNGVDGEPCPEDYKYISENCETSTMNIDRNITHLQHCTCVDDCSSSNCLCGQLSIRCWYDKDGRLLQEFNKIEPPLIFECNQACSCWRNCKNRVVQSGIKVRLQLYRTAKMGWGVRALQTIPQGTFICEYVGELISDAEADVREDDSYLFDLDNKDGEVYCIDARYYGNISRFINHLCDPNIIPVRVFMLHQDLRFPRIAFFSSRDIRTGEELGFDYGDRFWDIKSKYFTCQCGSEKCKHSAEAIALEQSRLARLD
Summary of the method: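 Radiometric methyltransferase assay: 0.031 nM EHMT2 913-1193 preincubated 30 min with compound (10-point 3-fold series, top final 50 μM, 2% DMSO) in 20 mM Bicine pH 7.5, 1 mM TCEP. Biotinylated histone peptide methylated with ^3H-SAM for 60 min at room temperature, quenched with unlabeled SAM, captured on streptavidin Flashplates and counted.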

EHMT1 = target: T2, EHMT1 (Homo sapiens, UniProt Q9H9B1); experiment: EHMT1 enzyme assay on peptide substrate (EHMT1 PEP); assay type: biochemical; conditions: Table II; read-out: EHMT1 PEP (IC50 μM)
T2 sequence (Q9H9B1 1-1298): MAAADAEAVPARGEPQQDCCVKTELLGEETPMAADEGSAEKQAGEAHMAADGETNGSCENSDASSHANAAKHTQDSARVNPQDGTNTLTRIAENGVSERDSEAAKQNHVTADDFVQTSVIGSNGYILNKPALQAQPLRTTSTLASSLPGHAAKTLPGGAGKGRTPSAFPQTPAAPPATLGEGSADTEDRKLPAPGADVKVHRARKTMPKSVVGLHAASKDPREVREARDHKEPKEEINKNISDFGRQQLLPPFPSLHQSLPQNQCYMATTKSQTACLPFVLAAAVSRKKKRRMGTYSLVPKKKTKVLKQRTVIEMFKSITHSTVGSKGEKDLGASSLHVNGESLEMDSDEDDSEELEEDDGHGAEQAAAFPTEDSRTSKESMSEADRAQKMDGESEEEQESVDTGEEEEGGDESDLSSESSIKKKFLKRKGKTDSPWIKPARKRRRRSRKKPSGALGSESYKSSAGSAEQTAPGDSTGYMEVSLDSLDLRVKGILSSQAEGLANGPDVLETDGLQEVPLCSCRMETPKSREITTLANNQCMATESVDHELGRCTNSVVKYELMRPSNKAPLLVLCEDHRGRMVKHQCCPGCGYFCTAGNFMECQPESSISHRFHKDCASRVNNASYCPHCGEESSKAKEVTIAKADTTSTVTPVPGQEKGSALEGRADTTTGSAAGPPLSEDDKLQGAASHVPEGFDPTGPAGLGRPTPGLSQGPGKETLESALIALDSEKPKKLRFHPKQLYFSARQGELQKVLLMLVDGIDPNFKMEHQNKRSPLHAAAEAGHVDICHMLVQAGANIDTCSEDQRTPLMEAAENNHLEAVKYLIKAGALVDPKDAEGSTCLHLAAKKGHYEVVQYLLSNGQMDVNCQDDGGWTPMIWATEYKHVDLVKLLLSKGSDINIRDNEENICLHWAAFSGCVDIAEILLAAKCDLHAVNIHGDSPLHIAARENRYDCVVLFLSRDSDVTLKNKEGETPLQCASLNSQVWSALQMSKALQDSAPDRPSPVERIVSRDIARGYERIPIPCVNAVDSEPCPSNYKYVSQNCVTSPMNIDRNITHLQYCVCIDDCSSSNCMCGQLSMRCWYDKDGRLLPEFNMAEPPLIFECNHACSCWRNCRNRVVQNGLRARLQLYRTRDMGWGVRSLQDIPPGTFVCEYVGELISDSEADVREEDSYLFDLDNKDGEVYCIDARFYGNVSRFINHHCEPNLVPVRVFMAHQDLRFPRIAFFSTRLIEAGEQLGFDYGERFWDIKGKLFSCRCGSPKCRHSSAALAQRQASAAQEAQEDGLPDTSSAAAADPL

| Compound | IC50 (human EHMT2 913-1193) | IC50 (EHMT1) |
| --- | --- | --- |
| COc1ccc(Nc2cccc3ncnn23)cc1OCCCN1CCCC1 [Compound 220] | > 10 µM | > 10 µM |
| COc1ccc(Nc2ccc3nn(C)cc3c2)cc1OCCCN1CCCC1 [Compound 221] | > 10 µM | > 10 µM |
| COc1ccc(Nc2cccc3cn(C)nc23)cc1OCCCN1CCCC1 [Compound 222] | > 10 µM | > 10 µM |
| COc1ccc(Nc2nccc(Nc3cccc(F)c3)n2)cc1OCCCN1CCCC1 [Compound 225] | 1 to 10 µM | 1 to 10 µM |
| COc1ccc(Nc2nccc(NCC3CCOCC3)n2)cc1NCCCN1CCCC1 [Compound 226] | 0.1 to 1 µM | 1 to 10 µM |
| COc1ccc(OCCCN2CCCC2)cc1Nc1nccc(NCC2CCOCC2)n1 [Compound 227] | > 10 µM | > 10 µM |
| COc1ccc(NCCCN2CCCC2)cc1Nc1nccc(NCC2CCOCC2)n1 [Compound 228] | > 10 µM | > 10 µM |
| CNc1ccnc(Nc2ccc(OC)c(OCCCN3CC[C@@H](F)C3)c2)n1 [Compound 229] | 0.1 to 1 µM | 0.1 to 1 µM |
| CNc1ccnc(Nc2ccc(OC)c(OCCCN3CC(F)C3)c2)n1 [Compound 230] | 1 to 10 µM | 1 to 10 µM |
| CNc1ccnc(Nc2ccc(OC)c(OCCN3CCOCC3)c2)n1 [Compound 237] | 1 to 10 µM | 1 to 10 µM |
| CNc1ccnc(Nc2ccc3c(c2)N(C(=O)CCN(C)C)CC3)n1 [Compound 239] | > 10 µM | > 10 µM |
| COc1ccc(Nc2nccc(CNC3CCOCC3)n2)cc1OCCCNc1ccccc1 [Compound 241] | > 10 µM | > 10 µM |
| COc1ccc(Nc2cnnc(NCC3CCN(C(C)=O)CC3)c2)cc1OCCCN1CCCC1 [Compound 242] | 1 to 10 µM | 1 to 10 µM |
| COc1ccc(Nc2nccc(NCC3CCOCC3)n2)cc1OC1CC2(C1)CN(C)C2 [Compound 243] | > 10 µM | > 10 µM |
| CC(C)Nc1ccnc(Nc2cccc(OCCCN3CC[C@@H](F)C3)c2)n1 [Compound 251] | > 10 µM | > 10 µM |
| CNc1ccnc(Nc2cccc(OC[C@H](O)CN3CCCC3)c2)n1 [Compound 252] | 1 to 10 µM | 1 to 10 µM |
| CNc1ccnc(Nc2cccc(OC[C@@H](O)CN3CCCC3)c2)n1 [Compound 253] | > 10 µM | > 10 µM |

Now from value to molecule:

| IC50 (human EHMT2 913-1193) | IC50 (EHMT1) | Compound |
| --- | --- | --- |
| > 10 µM | > 10 µM | COc1ccc(Nc2ccc3cnn(C)c3c2)cc1OCCCN1CCCC1 [Compound 217] |
| > 10 µM | > 10 µM | COc1ccc(Nc2ccc3ncn(C)c3n2)cc1OCCCN1CCCC1 [Compound 218] |
| > 10 µM | > 10 µM | COc1ccc(Nc2ncc3ncn(C)c3n2)cc1OCCCN1CCCC1 [Compound 219] |
| 1 to 10 µM | 1 to 10 µM | COc1ccc(Nc2ccc3ncc(C)n3n2)cc1OCCCN1CCCC1 [Compound 223] |
| > 10 µM | > 10 µM | COc1ccc(Nc2nccc(-c3cnn(C)c3)n2)cc1OCCCN1CCCC1 [Compound 224] |
| 0.1 to 1 µM | 0.1 to 1 µM | CNc1nccc(Nc2ccc(OC)c(OCCCN3CCCC3)c2)n1 [Compound 231] |
| > 10 µM | > 10 µM | CNc1cc(C)nc(Nc2ccc(F)c(OCCCN3CCCC3)c2)n1 [Compound 232] |
| > 10 µM | > 10 µM | CNc1nc(Nc2ccc(OC)c(OCCCN3CCCC3)c2)ncc1C#N [Compound 233] |
| > 10 µM | > 10 µM | CNc1nc(Nc2ccc(OC)c(OCCCN3CCCC3)c2)ncc1C(F)(F)F [Compound 234] |
| > 10 µM | > 10 µM | CNc1ncc(C(F)(F)F)c(Nc2ccc(OC)c(OCCCN3CCCC3)c2)n1 [Compound 235] |
| 0.1 to 1 µM | 0.1 to 1 µM | CNc1nc(Nc2ccc(OC)c(OCCCN3CCCC3)c2)nc(C)c1F [Compound 236] |
| < 0.1 µM | < 0.1 µM | CCc1cc(NC)nc(Nc2ccc(OC)c(OCCCN3CCCC3)c2)n1 [Compound 240] |
| > 10 µM | > 10 µM | CNc1ccnc(Nc2ccc(F)c(OCCCN3CCCC3)c2)n1 [Compound 244] |
| 0.1 to 1 µM | 0.1 to 1 µM | COc1ccc(Nc2nccc(N)n2)cc1OCCCN1CCCC1 [Compound 245] |
| 0.1 to 1 µM | 0.1 to 1 µM | CNc1cnnc(Nc2ccc(OC)c(OCCCN3CCCC3)c2)c1 [Compound 246] |
| 1 to 10 µM | 1 to 10 µM | CNc1cncc(Nc2ccc(OC)c(OCCCN3CCCC3)c2)n1 [Compound 247] |
| < 0.1 µM | < 0.1 µM | CNc1cc(Nc2cc(OCCCN3CCCC3)c(OC)cn2)ccn1 [Compound 248] |
| > 10 µM | > 10 µM | COc1ccc(Nc2nccc3[nH]ncc23)cc1OCCCN1CCCC1 [Compound 249] |
| 1 to 10 µM | 1 to 10 µM | COc1ccc(Nc2ccnc3[nH]ccc23)cc1OCCCN1CCCC1 [Compound 250] |
